molecular target: Human recombinant dopamine D2 receptor (Homo sapiens (Human), UniProt P14416); assay: not given; conditions: forskolin stimulation; well without test compound = 100%; CHO/DHFR(-) cells
Procedure: Partial agonistic activity on dopamine D2 receptor using D2 receptor expression cells
Partial agonistic activity on dopamine D2 receptor was evaluated by quantitatively determining cyclic AMP production inhibitory effect of a test compound in dopamine D2 receptor expression cells in which adenosine 3′,5′-cyclic monophosphate (cyclic AMP) production was induced by forskolin stimulation.
Human recombinant dopamine D2 receptor expressing Chinese hamster ovary/DHFR(−) cells were cultured in a culture medium (Iscove's Modified Dulbecco's Medium (IMDM culture medium), 10% fetal bovine serum, 50 I.U./ml penicillin, 50 μg/ml streptomycin, 200 μg/ml geneticin, 0.1 mM sodium hypoxanthine, 16 μM thymidine) at 37° C. and 5% carbon dioxide condition. Cells were seeded at 10^4 cells/well on a 96-well microtiter plate coated with poly-L-lysine and grown under the same condition for 2 days. Each well was washed with 100 μl of a culture medium (IMDM culture medium, 0.1 mM sodium hypoxanthine, 16 μM thymidine).

Chain of Human recombinant dopamine D2 receptor (P14416 whole entry): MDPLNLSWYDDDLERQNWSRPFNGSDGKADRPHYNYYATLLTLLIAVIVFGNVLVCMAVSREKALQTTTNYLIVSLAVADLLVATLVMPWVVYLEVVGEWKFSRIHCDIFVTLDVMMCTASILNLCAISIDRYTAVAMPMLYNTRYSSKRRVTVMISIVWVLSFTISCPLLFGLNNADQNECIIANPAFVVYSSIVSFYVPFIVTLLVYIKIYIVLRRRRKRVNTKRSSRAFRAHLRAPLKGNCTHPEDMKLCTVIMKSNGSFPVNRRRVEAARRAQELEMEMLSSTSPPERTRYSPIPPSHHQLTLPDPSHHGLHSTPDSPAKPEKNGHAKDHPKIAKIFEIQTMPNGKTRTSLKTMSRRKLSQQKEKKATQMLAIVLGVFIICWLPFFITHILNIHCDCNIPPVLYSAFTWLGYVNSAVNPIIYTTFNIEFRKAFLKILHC

Row | Compound | quantity of cyclic AMP as the maximum activity
1 | NCCc1ccc(O)c(O)c1 [dopamine] | about 10%

system: Serotonin (5-HT) uptake by rat brain synaptosome; assay: Serotonin (5-HT) uptake inhibitory activity by rat brain synaptosome; assay type: biochemical; conditions: test compound 300 nM; rat frontal cortex crude synaptosome; tritium labeled 5-HT 8 nM
Procedure: Measurement of Serotonin (5-HT) Uptake Inhibitory Activity of a Test Compound by Rat Brain Synaptosome
Wistar male rats were decapitated, the brain was retrieved and frontal cortex was dissected out, and it was homogenized in 0.32 M sucrose solution of a weight 20 times of the weight of the tissue using a Potter type homogenizer.
5-HT uptake reaction was performed in a volume of 200 μl using a 96-well round bottom plate and pargyline (final concentration 10 μM) and sodium ascorbate (final concentration 0.2 mg/ml) were contained in the incubation buffer upon reaction and used.
Incubation buffer (total counting), non-labeled 5-HT (final concentration 10 μM, non-specific counting) and the diluted test compound (final concentration 300 nM) were added to each well. One-tenth quantity of the final volume of the synaptosome fraction was added and after preincubated at 37° C. for 10 minutes, tritium labeled 5-HT solution (final concentration 8 nM) was added and uptake reaction was started at 37° C. The uptake time was 10 minutes and the reaction was terminated by vacuum filtration through a 96-well fiber glass filter paper plate, and after the filter paper was washed with cold normal saline, it was dried enough and Microscint0 (Perkin-Elmer) was added to the filter and remaining radioactivity on the filter was measured.

Row | Compound | Serotonin uptake inhibitory ratio (%)(300 nM) [%]
2 | O=C1CCc2cc(OCCCCN3CCN(c4cccc5sccc45)CC3)ccc2N1 [Example 20, 6-[4-(4-benzo[b]thiophen-4-yl-piperazin-1-yl)butoxy]-3,4-dihydro-1H-quinolin-2-one] | 92.8
3 | O=C1CCc2ccc(OC/C=C/CN3CCN(c4cccc5sccc45)CC3)cc2N1 [Example 15, 7-[4-(4-benzo[b]thiophen-4-yl-piperazin-1-yl)-(E)-2-butenyloxy]-3,4-dihydro-1H-quinolin-2-one] | 87.2
4 | CCN1CCc2cc(OCCCN3CCN(c4cccc5sccc45)CC3)ccc2C1=O [Example 27, 6-[3-(4-benzo[b]thiophen-4-yl-piperazin-1-yl)propoxy]-2-ethyl-3,4-dihydro-2H-isoquinolin-1-one] | 94.0
5 | O=c1[nH]c2ccccc2cc1OCCN1CCN(c2cccc3sccc23)CC1 [Example 2, 3-[2-(4-benzo[b]thiophen-4-yl-piperazin-1-yl)ethoxy]-1H-quinolin-2-one] | 78.8
6 | O=c1ccc2ccc(OCCCCN3CCN(c4cccc5sccc45)CC3)cc2[nH]1 [Example 1, 7-[4-(4-benzo[b]thiophen-4-yl-piperazin-1-yl)butoxy]-1H-quinolin-2-one] | 92.4
7 | Cc1cc(=O)[nH]c2cc(OCCCN3CCN(c4cccc5sccc45)CC3)ccc12 [Example 3, 7-[3-(4-benzo[b]thiophen-4-yl-piperazin-1-yl)propoxy]-4-methyl-1H-quinolin-2-one] | 84.8
8 | O=C1CCc2ccc(OC/C=C\CN3CCN(c4cccc5sccc45)CC3)cc2N1 [Example 13, 7-[4-(4-benzo[b]thiophen-4-yl-piperazin-1-yl)-(Z)-2-butenyloxy]-3,4-dihydro-1H-quinolin-2-one] | 77.0
9 | CN1CCc2cc(OCCCN3CCN(c4cccc5sccc45)CC3)ccc2C1=O [Example 26, 6-[3-(4-benzo[b]thiophen-4-yl-piperazin-1-yl)propoxy]-2-methyl-3,4-dihydro-2H-isoquinolin-1-one] | 92.0
10 | Cc1cc2ccc(OCCCCN3CCN(c4cccc5sccc45)CC3)cc2[nH]c1=O [Example 6, 7-[4-(4-benzo[b]thiophen-4-yl-piperazin-1-yl)butoxy]-3-methyl-1H-quinolin-2-one] | 91.3
11 | O=c1[nH]ccc2cc(OCCCN3CCN(c4cccc5sccc45)CC3)ccc12 [Example 40, 6-[3-(4-benzo[b]thiophen-4-yl-piperazin-1-yl)propoxy]-2H-isoquinolin-1-one] | 91.6
12 | Cc1cc(=O)[nH]c2cc(OCCCCN3CCN(c4cccc5sccc45)CC3)ccc12 [Example 4, 7-[4-(4-benzo[b]thiophen-4-yl-piperazin-1-yl)butoxy]-4-methyl-1H-quinolin-2-one] | 91.0
13 | CC1CC(=O)Nc2cc(OCCCCN3CCN(c4cccc5sccc45)CC3)ccc21 (stereo not shown) [Example 16, 7-[4-(4-benzo[b]thiophen-4-yl-piperazin-1-yl)butoxy]-4-methyl-3,4-dihydro-1H-quinolin-2-one] | 86.7
14 | Cc1cc2ccc(OCCCN3CCN(c4cccc5sccc45)CC3)cc2[nH]c1=O [Example 5, 7-[3-(4-benzo[b]thiophen-4-yl-piperazin-1-yl)propoxy]-3-methyl-1H-quinolin-2-one] | 89.1
15 | O=C1NCCc2cc(OCCCN3CCN(c4cccc5sccc45)CC3)ccc21 [Example 25, 6-[3-(4-benzo[b]thiophen-4-yl-piperazin-1-yl)propoxy]-3,4-dihydro-2H-isoquinolin-1-one] | 91.9
16 | O=c1c2ccccc2ccn1CCCCN1CCN(c2cccc3sccc23)CC1 [Example 34, 2-[4-(4-benzo[b]thiophen-4-yl-piperazin-1-yl)butyl]-2H-isoquinolin-1-one] | 94.2
17 | O=C1c2ccccc2CCN1CCCCCN1CCN(c2cccc3sccc23)CC1 [Example 24, 2-[5-(4-benzo[b]thiophen-4-yl-piperazin-1-yl)pentyl]-3,4-dihydro-2H-isoquinolin-1-one] | 97.5
18 | O=C1CCc2ccc(OCCCN3CCN(c4cccc5sccc45)CC3)cc2N1 [Example 10, 7-[3-(4-benzo[b]thiophen-4-yl-piperazin-1-yl)propoxy]-3,4-dihydro-1H-quinolin-2-one] | 92.6
19 | O=c1ccc2ccc(OCCCN3CCN(c4cccc5sccc45)CC3)cc2[nH]1 [Example 7, 7-[3-(4-benzo[b]thiophen-4-yl-piperazin-1-yl)propoxy]-1H-quinolin-2-one] | 91.0

Source: patent USRE48059E1, “Piperazine-substituted benzothiophenes for treatment of mental disorders” (Otsuka Pharmaceutical Co., Ltd., priority 2005, dated 2020)
